Results taken from a melting point compilation (Tetko et al.; mined from patent text by program, amines drawn as free bases though some values may be those of a salt).

| Structure (SMILES) | melting point [°C] |
| --- | --- |
| O=C1CC(CI)C(=O)N1c1ccc(F)cc1 (stereo unspecified) | 156 |
| COc1ccc(C(=O)Nc2ccc(OCCCl)cc2)c(N)c1 | 167 to 168 |
| CSc1nc(Cl)c(C#N)s1 | 83 to 87 |
| O=C(O)Cc1cc(C(=O)c2ccccc2Cl)ccc1O | 148 |
| O=C1c2ccccc2CCn2cccc21 | 54 to 55 |
| Cc1nnc2n1-c1sccc1C(c1ccccc1Cl)=NC2 | 221 to 223 |
| CCNC(=O)c1ccccc1OC(C)(C)C | 34.5 to 36 |
| O=C1C(=Cc2cccc(C(F)(F)F)c2)SC(=S)N1N=c1sc2ccccc2s1 | 268 to 269 |
| O=C(CCCc1ccccc1)N[C@H](Cc1ccc(F)cc1)[C@@H](O)c1ccc(C(F)(F)F)cc1 (racemic) | 155 to 156 |
| OCCCCCCCCCCCOc1ccc(O)cc1 | 99 to 100 |
| C#Cc1cc2c(cc1Cl)C=C(C(=O)O)C(C(F)(F)F)O2 (stereo unspecified) | > 300 |
| O=C(O)c1cc(OC(F)(F)F)ccc1[N+](=O)[O-] | 90 to 93 |
| NS(=O)(=O)c1ccc(-c2cccn2-c2ccc(Cl)cc2)cc1 | 179 to 181 |
| COc1c(N2CC(=NO)C3(CC3)C2)c(F)cc2c(=O)c(C(=O)O)cn(C3CC3)c12 | 233 to 235 |
| O=C(OC1C2OCC(O2)C(OCc2ccccc2)C1OCc1ccccc1)c1ccccc1 (stereo unspecified) | 111 to 113 |
| O=c1[nH]nc(-c2ccccc2)c(-c2ccccc2)c1S(=O)(=O)c1ccccc1 | 254 to 256 |
| CCC(C)(N=NC(C)(CC)NC(=O)Nc1ccccc1)NC(=O)Nc1ccccc1 (stereo unspecified) | 118 to 120 |
| CC(=O)Oc1ccc(CC(CC(=O)O)N2C(=O)c3ccccc3C2=O)cc1 (stereo unspecified) | 151 to 154 |
| Cc1ccc(Cc2cnc(NCCCNc3ccc(Cl)cn3)[nH]c2=O)cn1 | 173 to 175 |
| Fc1cccc(F)c1C1=NC(c2ccc(-c3ccc(OCc4ccc(C(F)(F)F)cc4)cc3)cc2)CO1 (stereo unspecified) | 166 |
| O=S1(=O)NCN(C2CC2)c2ccc(C(F)(F)F)cc21 | 155 to 157 |
| Cc1c(C(=O)Nc2ccc(N3CCC(N4CCOCC4)CC3)c(C#N)c2)cnn1CCc1ccccc1 | 195 |
| O=C1OC(COc2ccccc2)CN1CCCOc1ccc(CC2SC(=O)N(C(c3ccccc3)(c3ccccc3)c3ccccc3)C2=O)cc1 (stereo unspecified) | 70 to 73 |

Second part, the compound after the results:

| melting point [°C] | Structure (SMILES) |
| --- | --- |
| 291 to 299 | COc1ccc(-c2[nH]c3cn[nH]c(=O)c3c2Cl)cc1OC(C)C |
| 181 to 183 | COC(=O)c1ccc(S(=O)(=O)N2CCC(Sc3cc(C(C)(C)C)c(O)c(C(C)(C)C)c3)CC2)n1C |
| 217 to 218 | COc1cc(C(=O)Nc2cc(-c3c(-c4ccc(F)c(C)c4)nc4cccnn34)ccn2)ccc1F |
| 154 to 157 | COc1ccc(C2=NN(C(C)CCC(=O)Nc3ccc(C4=NNC(=O)CC4C)cc3)C(=O)C3CC=CCC23)cc1OC (stereo unspecified) |
| 76 to 77 | CC(C)C(Oc1ccccc1)C(=O)NCCO[N+](=O)[O-] (stereo unspecified) |
| 90 to 91 | Cc1cc(OCc2ccccc2)cc(=O)o1 |
| 106 | CN(Cc1cccc(-c2ccc(CC3SC(=O)NC3=O)cc2)c1)C(=O)c1cc(Cl)cc(Cl)c1 (stereo unspecified) |
| 168 to 169 | COP(=O)(OC)c1ccc(-c2coc3ccc(-c4nnc(C)o4)cc23)cc1 |
| 236 | CC(C)c1cc(C(C)C)c(-c2csc(Br)n2)c(C(C)C)c1 |
| 229 to 234 | O=C1COc2ccc(C3=Cc4cc(F)ccc4SC3)cc2N1 |
| 136 | CCCC1(c2ccccc2Cl)C(=O)Nc2ccc(OCC)cc21 (stereo unspecified) |
| 122 to 124 | COc1ccc2c(c1)Sc1ccc(SC)cc1C(O)C2 (stereo unspecified) |
| 303 to 308 | COc1ccc(-c2cc(=O)cc(C(N)=O)o2)cc1 |
| > 300 | CNC(=O)Nc1ccc(-c2c[nH]c(=O)cn2)cc1 |
| 73.5 to 75.5 | COc1ccc(Oc2ccc(C(C)=C3SCCCS3)cc2)cc1OC |
| 255 to 256 | CCc1nc2c(N)nc(C)c(C)c2n1Cc1cc(-c2ccc(F)cc2)no1 |
| 84 to 86 | Cc1ccc(COCc2c(C(C)C)cc(C(C)C)c(C(C)O)c2-c2ccc(F)cc2)cc1 (single isomer, unassigned; (+)) |
| 223 to 225 | O=c1[nH]nc2n1-c1ccc(Cl)cc1C(c1ccccc1F)=CC2 |
| 95 to 96 | CCOC(=O)Cc1c(-c2ccccc2)c2cc(COC(C)=O)c(COC(C)=O)cc2oc1=O |
| 132 to 134 | CCCCn1c(C)c(C(=O)Nc2c(CC)cccc2CC)c(=O)c(Br)c1CC |
| 131 to 133 | COc1ccc2c(c1)c(Cc1cc(=O)n(-c3ccc(C)cc3)[nH]1)c(C)n2C(=O)c1ccc(Cl)cc1 |
| 94 to 94.5 | CCN(CC)C(=O)COc1ccc(CCCOC(=O)NCC2CC2)c(Oc2ncc(C(F)(F)F)cc2Cl)c1 |
| 106 to 109 | C#CCN1C(=O)C2CC2(c2ccc(N)cc2)C1=O (stereo unspecified) |
| 53 to 55 | CCCc1c(OCCC(C)Br)ccc(C(C)=O)c1O (stereo unspecified) |
| 108 to 109 | CCOC(=O)c1ncoc1-c1cc(Cl)nc(Cl)c1 |
| 86 to 91 | CCOC(=O)C1C(=O)N(C)c2ccc(Cl)cc2S1(=O)=O (stereo unspecified) |
| 152 | Cc1cc(Cn2nc(-c3ccccc3)oc2=O)cc(C(C)(C)C)c1O |
| 233 to 235 | CC(C)n1nc(-c2sc(N)nc2-c2ccccc2F)ccc1=O |
